Among the data in US8088806B2 (Achillion Pharmaceuticals, Inc., priority 2005, dated 2012) are EC50 values, retold here.

The assay concerns HCV replicon. The experiment in a line: Replicon based assay of HCV replication inhibition (NPT ELISA). Format: cell-based, Hepatitis C virus. The note with it: Hepatitis C virus, replicon based assay of HCV replication inhibition; Table IV; read-out: Activity. In a few lines: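 Huh-7 cells carrying a bicistronic HCV replicon (neo, EMCV-IRES-driven NS3–NS5B) treated overnight after seeding with usually 6 concentrations, 10 to 0.03 micromolar, for three days at 37° C without G418. Replication read as NPT level by captured ELISA; matched-DMSO wells and interferon alpha as controls.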
Take `c1cncc(-c2csc(Nc3ccc4c(c3)OCO4)n2)c1` [compound 740, N-(benzo[d][1,3]dioxol-6-yl)-4-(pyridin-3-yl)thiazol-2-amine]: the EC50 is more than 10 µM.

As to `COc1ccc(Nc2nc(-c3cccnc3)cs2)cc1OC1CCCC1` [compound 741, N-(3-(cyclopentyloxy)-4-methoxyphenyl)-4-(pyridin-3-yl)thiazol-2-amine], the EC50 was 1 to 10 µM.

Turning to `Clc1cc(Nc2nc(-c3cccnc3)cs2)ccc1N1CCOCC1` [compound 742, N-(3-chloro-4-morpholinophenyl)-4-(pyridin-3-yl)thiazol-2-amine], the EC50 is 1 to 10 µM.

For the compound `CN1Cc2c(Nc3nc(-c4cccnc4)cs3)cccc2C(c2ccccc2)C1` (stereo not drawn) [compound 743, 1,2,3,4-tetrahydro-2-methyl-4-phenyl-N-(4-(pyridin-3-yl)thiazol-2-yl)isoquinolin-8-amine], the EC50 was more than 10 µM.

As to `COC(=O)c1sc(-c2ccccc2)cc1Nc1nc(-c2cccnc2)cs1` [compound 744, methyl 3-(4-(pyridin-3-yl)thiazol-2-ylamino)-5-phenylthiophene-2-carboxylate], the EC50 is more than 10 µM.

Consider `Cc1nc2cc(Nc3nc(-c4cccnc4)cs3)ccc2s1` [compound 745, 2-methy1-N-(4-(pyridin-3-yl)thiazol-2-yl)benzo[d]thiazol-5-amine], for which the EC50 was more than 10 µM.

Consider `c1cncc(-c2csc(Nc3cc(-c4cccs4)n[nH]3)n2)c1` [compound 746, N-(4-(pyridin-3-yl)thiazol-2-yl)-3-(thiophen-2-yl)-1H-pyrazol-5-amine], for which the EC50 is more than 10 µM.

Turning to `Cc1cccc2sc(Nc3nc(-c4cccnc4)cs3)nc12` [compound 747, 4-methyl-N-(4-(pyridin-3-yl)thiazol-2-yI)benzo[d]thiazol-2-amine], the EC50 is more than 10 µM.

As to `Cn1nc(-c2ccccc2)cc1Nc1nc(-c2cccnc2)cs1` [compound 748, 1-methyl-3-phenyl-N-(4-(pyridin-3-yl)thiazol-2-yl)-1H-pyrazol-5-amine], the EC50 was more than 10 µM.

Take `c1cc(Nc2nc(-c3cccnc3)cs2)cc(-c2cocn2)c1` [compound 749, N-(3-(oxazol-4-yl)phenyl)-4-(pyridin-3-yl)thiazol-2-amine]: the EC50 was more than 10 µM.

On to `CCn1c(C)nc2cc(Nc3nc(-c4cccnc4)cs3)ccc21` [compound 750, 1-ethyl-2-methyl-N-(4-(pyridin-3-yl)thiazol-2-yl)-1H-benzo[d]imidazol-5-amine], for which the EC50 was more than 10 µM.

As for `c1ccc(Oc2ccc(Nc3nc(-c4cccnc4)cs3)cn2)cc1` [compound 752, 6-phenoxy-N-(4-(pyridin-3-yl)thiazol-2-yl)pyridin-3-amine], the EC50 lay in the range of 1 to 10 µM.

For `c1cncc(-c2csc(Nc3ccc4ncsc4c3)n2)c1` [compound 753, N-(4-(pyridin-3-yl)thiazol-2-yl)benzo[d]thiazol-6-amine], the EC50 was more than 10 µM.

Turning to `c1ccc(-c2cc(Nc3nc(-c4cccnc4)cs3)[nH]n2)cc1` [compound 754, 3-phenyl-N-(4-(pyridin-3-yl)thiazol-2-yl)-1H-pyrazol-5-amine], the EC50 was more than 10 µM.

In the case of `c1cncc(-c2csc(Nc3ccc4[nH]ncc4c3)n2)c1` [compound 755, N-(4-(pyridin-3-yl)thiazol-2-yl)-1H-indazol-5-amine], the EC50 is more than 10 µM.

With `c1ccc(-c2ccc(Nc3nc(-c4cccnc4)cs3)cn2)cc1` [compound 756, 6-phenyl-N-(4-(pyridin-3-yl)thiazol-2-yl)pyridin-3-amine], the EC50 was in the range of 1 to 10 µM.

With `c1ccc(CCc2ccc(Nc3nc(-c4cccnc4)cs3)cc2)cc1` [compound 757, N-(4-phenethylphenyl)-4-(pyridin-3-yl)thiazol-2-amine], the EC50 was less than 1 µM.

Regarding `CCN(CC)CCOC(=O)c1ccc(Nc2nc(-c3cccnc3)cs2)cc1` [compound 758, 2-(diethylamino)ethyl 4-(4-(pyridin-3-yl)thiazol-2-ylamino)benzoate], the EC50 is more than 10 µM.

Take `CCN(CC)C(=O)c1cccc(Nc2nc(-c3cccnc3)cs2)c1` [compound 759, 3-(4-(pyridin-3-yl)thiazol-2-ylamino)-N,N-diethylbenzamide]: the EC50 was more than 10 µM.

For `O=C(c1ccccc1)c1cccc(Nc2nc(-c3cccnc3)cs2)c1` [compound 760, (3-(4-(pyridin-3-yl)thiazol-2-ylamino)phenyl)(phenyl) methanone], the EC50 is more than 10 µM.

For the compound `c1cncc(-c2csc(Nc3ccc4nccnc4c3)n2)c1` [compound 761, N-(4-(pyridin-3-yl)thiazol-2-yl)quinoxalin-6-amine], the EC50 is more than 10 µM.

With `[2H]c1ccc2nc(-c3csc(Nc4ccc(OCC5CCCCC5)c(C(F)(F)F)c4)n3)ccc2n1` [compound 762, N-(4-(cyclohexylmethoxy)-3-(trifluoromethyl)phenyl)-4-(2-deuterated-1,5-naphthyridin-6-yl)thiazol-2-amine], the EC50 fell in the range of 1 to 10 µM.

As for `FC(F)(F)c1cc(Nc2nc(-c3cncnc3-c3ccccc3)cs2)ccc1OCC1CCCCC1` [compound 763, N-(4-(cyclohexylmethoxy)-3-(trifluoromethyl)phenyl)-4-(4-phenylpyrimidin-5-yl)thiazol-2-amine], the EC50 lay in the range of 1 to 10 µM.

Consider `N#Cc1ccc(-c2csc(Nc3ccc(OCC4CCCCC4)c(C(F)(F)F)c3)n2)o1` [compound 764, 5-(2-(4-(cyclohexylmethoxy)-3-(trifluoromethyl)phenylamino)thiazol-4-yl)furan-2-carbonitrile], for which the EC50 is less than 1 µM.

Consider `OCc1cc2cc(-c3csc(Nc4ccc(OCC5CCCCC5)c(C(F)(F)F)c4)n3)ccc2o1` [compound 765, (5-(2-(4-(cyclohexylmethoxy)-3-(trifluoromethyl)phenylamino)thiazol-4-yl)benzofuran-2-yl)methanol], for which the EC50 was less than 1 µM.

As for `FC(F)(F)c1ccc(-c2csc(Nc3ccc(OCC4CCCCC4)c(C(F)(F)F)c3)n2)nc1` [compound 766, N-(4-(cyclohexylmethoxy)-3-(trifluoromethyl)phenyl)-4-(5-(trifluoromethyl)pyridin-2-yl)thiazol-2-amine], the EC50 was less than 1 µM.

On to `COc1ncc(-c2csc(Nc3ccc(OCC4CCCCC4)c(C(F)(F)F)c3)n2)c(OC)n1` [compound 767, N-(4-(cyclohexylmethoxy)-3-(trifluoromethyl)phenyl)-4-(2,4-dimethoxypyrimidin-5-yl)thiazol-2-amine], for which the EC50 was less than 1 µM.

Regarding `Cc1ccnc(-c2csc(Nc3ccc(OCC4CCCCC4)c(C(F)(F)F)c3)n2)c1` [compound 768, N-(4-(cyclohexylmethoxy)-3-(trifluoromethyl)phenyl)-4-(4-methylpyridin-2-yl)thiazol-2-amine], the EC50 is less than 1 µM.

Turning to `CCOC(=O)c1csc(-c2csc(Nc3ccc(OCC4CCCCC4)c(C(F)(F)F)c3)n2)n1` [compound 769, ethyl 2-(2-(4-(cyclohexylmethoxy)-3-(trifluoromethyl)phenylamino)thiazole-4-yl)thiazole-4-carboxylate], the EC50 was less than 1 µM.

`CCCCCCCCOc1ccc(Nc2nc(-c3nc4ccccc4n3C)cs2)cc1C(F)(F)F` [compound 770, N-(3-(trifluoromethyl)-4-(octyloxy)phenyl)-4-(1-methyl-1H-benzo[d]imidazol-2-yl)thiazol-2-amine]: the EC50 is less than 1 µM.
